Reference: ChEMBL document CHEMBL1201862, “PubChem BioAssay data set” (2004)
“And” between values parts separate entries of the source, which are not always exact repeats. Equal values may be shown once.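 96-well plates; 48 h exposure; 5 concentrations. Endpoints by linear interpolation between flanking doses. Not reached: highest tested concentration assigned. At the GI50, growth is halved.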 The source made the active and inactive calls. Cut-off read from the data, not from the text of the source: active = GI50 up to about 1.1 µM and inactive = higher.

What was measured:
Assay in all cases: inhibition of tumour cell growth, NCI panel, 48 h
SN12C = system: SN12C
UO-31 = system: UO-31
SF-268 = system: SF-268
SK-MEL-2 = system: SK-MEL-2
HOP-92 = system: HOP-92
UACC-62 = system: UACC-62
HL-60 = system: HL-60
UACC-257 = system: UACC-257
NCI-H460 = system: NCI-H460
HCT-116 = system: HCT-116
U-251 = system: U-251
KM12 = system: KM12
RXF 393 = system: RXF 393
LOX IMVI = system: LOX IMVI
CAKI-1 = system: CAKI-1
A549 = system: A549
CCRF-CEM = system: CCRF-CEM
HT-29 = system: HT-29
HOP-62 = system: HOP-62
ACHN = system: ACHN

Nc1ccn(C2OC(COP(=O)(O)Oc3ccccc3)C(O)C2O)c(=O)n1 (stereo unspecified)
GI50 (SN12C): 12.7 µM (inactive)
GI50 (UO-31): 30.6 µM (inactive)
GI50 (SF-268): 20 µM (inactive)
GI50 (SK-MEL-2): > 100 µM (inactive)
GI50 (HOP-92): 18.6 µM (inactive)
GI50 (UACC-62): 56.5 µM (inactive)
GI50 (HL-60): 61.2 µM (inactive)
GI50 (UACC-257): > 95.9 µM (inactive)
GI50 (NCI-H460): 2.6 µM (inactive)
GI50 (HCT-116): 5.57 µM (inactive)
GI50 (U-251): 44.6 µM (inactive)
GI50 (KM12): > 100 µM (inactive)
GI50 (RXF 393): > 45.8 µM (inactive)
GI50 (LOX IMVI): 6.61 µM (inactive)
GI50 (CAKI-1): 24.5 µM (inactive)
GI50 (A549): 3.73 µM (inactive)
GI50 (CCRF-CEM): 1.01 µM (active)
GI50 (HT-29): > 100 µM (inactive)

COc1ccc(N2NC(c3ccccc3)(c3ccccc3)C(C)C2=O)cc1 (stereo unspecified)
GI50 (SN12C): 82.8 µM (inactive)
GI50 (UO-31): 30.1 µM (inactive)
GI50 (SF-268): 88.5 µM (inactive)
GI50 (SK-MEL-2): 51.8 µM (inactive)
GI50 (HOP-92): 48.5 µM (inactive)
GI50 (UACC-62): 91.2 µM (inactive)
GI50 (HOP-62): > 100 µM (inactive)
GI50 (HL-60): 35.3 µM (inactive)
GI50 (UACC-257): 51.3 µM (inactive)
GI50 (ACHN): 42.7 µM (inactive)
GI50 (NCI-H460): 29.6 µM (inactive)
GI50 (HCT-116): 43 µM (inactive)
GI50 (U-251): 64.3 µM (inactive)
GI50 (KM12): 33 µM (inactive)
GI50 (RXF 393): 52.4 µM (inactive)
GI50 (LOX IMVI): 44 µM (inactive)
GI50 (CAKI-1): 54.2 µM (inactive)
GI50 (A549): 34.4 µM (inactive)
GI50 (CCRF-CEM): 35.6 µM (inactive)
GI50 (HT-29): 40 µM (inactive)

O=C(Nc1nnc(S)[nH]1)C(=O)C(c1cnc2ccc([N+](=O)[O-])cc2n1)[N+](=O)[O-] (stereo unspecified)
GI50 (SN12C): > 100 µM (inactive)
GI50 (UO-31): > 100 µM (inactive)
GI50 (SF-268): > 100 µM (inactive)
GI50 (HOP-92): > 100 µM (inactive)
GI50 (UACC-62): > 100 µM (inactive)
GI50 (HOP-62): > 100 µM (inactive)
GI50 (HL-60): > 100 µM (inactive)
GI50 (UACC-257): > 100 µM (inactive)
GI50 (ACHN): 94.8 µM (inactive)
GI50 (NCI-H460): > 100 µM (inactive)
GI50 (HCT-116): > 100 µM (inactive)
GI50 (U-251): > 100 µM (inactive)
GI50 (KM12): > 100 µM (inactive)
GI50 (RXF 393): > 100 µM (inactive)
GI50 (LOX IMVI): > 100 µM (inactive)
GI50 (CAKI-1): > 100 µM (inactive)
GI50 (A549): > 100 µM (inactive)
GI50 (CCRF-CEM): > 100 µM (inactive)
GI50 (HT-29): > 100 µM (inactive)

c1cc(CNC2C3CCC(C3)C2c2c[nH]c3ccccc23)cc(CNC2C3CCC(C3)C2c2c[nH]c3ccccc23)c1 (stereo unspecified)
GI50 (UO-31): 229 nM (active) and 160 nM (active)
GI50 (SF-268): 1.58 µM (inactive) and 1.53 µM (inactive)
GI50 (SK-MEL-2): 1.57 µM (inactive) and 1.91 µM (inactive)
GI50 (UACC-62): 1.81 µM (inactive) and 1.74 µM (inactive)
GI50 (HOP-62): 1.85 µM (inactive) and 1.77 µM (inactive)
GI50 (ACHN): 1.19 µM (inactive) and 1.57 µM (inactive)
GI50 (NCI-H460): 366 nM (active) and 405 nM (active)
GI50 (U-251): 619 nM (active) and 615 nM (active)
GI50 (KM12): 596 nM (active) and 759 nM (active)
GI50 (RXF 393): 1.22 µM (inactive) and 1.31 µM (inactive)
GI50 (LOX IMVI): 555 nM (active) and 232 nM (active)
GI50 (CAKI-1): 1.65 µM (inactive) and 1.73 µM (inactive)
GI50 (A549): 600 nM (active) and 773 nM (active)
GI50 (CCRF-CEM): 195 nM (active) and 325 nM (active)

Oc1ccc(Br)cc1/C=N/C1CCCCC1
GI50 (SN12C): < 0.01 µM (active)
GI50 (UO-31): 33.8 µM (inactive)
GI50 (SF-268): 10.6 µM (inactive)
GI50 (SK-MEL-2): 25.1 µM (inactive)
GI50 (HOP-92): 72.1 µM (inactive)
GI50 (UACC-62): 32 µM (inactive)
GI50 (HOP-62): 45.4 µM (inactive)
GI50 (HL-60): 4.81 µM (inactive)
GI50 (UACC-257): 47.2 µM (inactive)
GI50 (ACHN): 65.5 µM (inactive)
GI50 (NCI-H460): 71.4 µM (inactive)
GI50 (HCT-116): 12.4 µM (inactive)
GI50 (U-251): 12.4 µM (inactive)
GI50 (KM12): 29.8 µM (inactive)
GI50 (RXF 393): > 100 µM (inactive)
GI50 (LOX IMVI): 13.3 µM (inactive)
GI50 (CAKI-1): > 100 µM (inactive)
GI50 (A549): > 100 µM (inactive)
GI50 (CCRF-CEM): 5.37 µM (inactive)
GI50 (HT-29): 42.3 µM (inactive)

C[n+]1cccc2c(=O)c3ccccc3oc21
GI50 (SN12C): > 100 µM (inactive)
GI50 (UO-31): 69.5 µM (inactive)
GI50 (SF-268): > 100 µM (inactive)
GI50 (SK-MEL-2): > 100 µM (inactive)
GI50 (HOP-92): > 100 µM (inactive)
GI50 (UACC-62): > 100 µM (inactive)
GI50 (HOP-62): > 100 µM (inactive)
GI50 (HL-60): > 100 µM (inactive)
GI50 (ACHN): > 100 µM (inactive)
GI50 (NCI-H460): > 100 µM (inactive)
GI50 (HCT-116): > 100 µM (inactive)
GI50 (U-251): > 100 µM (inactive)
GI50 (KM12): > 100 µM (inactive)
GI50 (RXF 393): > 100 µM (inactive)
GI50 (LOX IMVI): > 100 µM (inactive)
GI50 (CAKI-1): > 100 µM (inactive)
GI50 (A549): > 100 µM (inactive)
GI50 (CCRF-CEM): > 100 µM (inactive)
GI50 (HT-29): > 100 µM (inactive)

C=CCCCC12CCCc3cccc(c31)NC2=O (stereo unspecified)
GI50 (SN12C): 32.4 µM (inactive)
GI50 (UO-31): 30.4 µM (inactive)
GI50 (SK-MEL-2): 23.2 µM (inactive)
GI50 (HOP-92): 13.8 µM (inactive)
GI50 (UACC-62): 16.8 µM (inactive)
GI50 (HOP-62): 34 µM (inactive)
GI50 (HL-60): 15.5 µM (inactive)
GI50 (UACC-257): 22.1 µM (inactive)
GI50 (ACHN): 28.1 µM (inactive)
GI50 (NCI-H460): 16.8 µM (inactive)
GI50 (HCT-116): 13.6 µM (inactive)
GI50 (U-251): 22 µM (inactive)
GI50 (KM12): 17.4 µM (inactive)
GI50 (RXF 393): 17.6 µM (inactive)
GI50 (LOX IMVI): 21.6 µM (inactive)
GI50 (A549): 20.2 µM (inactive)
GI50 (CCRF-CEM): 16.9 µM (inactive)

COc1ccc(-n2cnnc2-c2nsc3ccccc23)cc1
GI50 (SN12C): 99.8 µM (inactive)
GI50 (UO-31): > 100 µM (inactive)
GI50 (SF-268): 75.3 µM (inactive)
GI50 (SK-MEL-2): > 100 µM (inactive)
GI50 (HOP-92): 45.1 µM (inactive)
GI50 (UACC-62): > 100 µM (inactive)
GI50 (HOP-62): 94.8 µM (inactive)
GI50 (HL-60): 78 µM (inactive)
GI50 (UACC-257): > 100 µM (inactive)
GI50 (ACHN): 90.6 µM (inactive)
GI50 (NCI-H460): > 100 µM (inactive)
GI50 (HCT-116): > 100 µM (inactive)
GI50 (U-251): > 100 µM (inactive)
GI50 (KM12): 95.1 µM (inactive)
GI50 (RXF 393): 12.4 µM (inactive)
GI50 (LOX IMVI): > 100 µM (inactive)
GI50 (A549): > 100 µM (inactive)
GI50 (CCRF-CEM): > 100 µM (inactive)
GI50 (HT-29): 92.5 µM (inactive)
